The conditions of series [1]: reported in the literature; cited from earlier work.
Series [2] concerns MC3T3-E1 murine pre-osteoblast cells. As to the kind of experiment: Standard cell uptake assay: competition for uptake of ^14C-ascorbic acid. Type of series: cell-based. Particulars: for IC50: Mus musculus, competition with ^14C-ascorbic acid uptake into MC3T3-E1 cells; for Competition: competition with 125 μM ^14C-ascorbic acid for uptake into MC3T3-E1 cells, 60 min. As for the experimental part: Unlabelled ascorbic acid derivatives of the present invention have been tested for their ability to compete for uptake of ^14C-ascorbic acid into MC3T3-E1 cells, a murine pre-osteoblast cell line. MC3T3-E1 cells are grown in tissue culture plates and the appropriate assay solution containing a standard concentration of ^14C-ascorbic acid plus a competing concentration of ascorbic acid derivative added to each well. The amount of ^14C-ascorbic acid taken up by the cells in 60 min is then measured.
Standard Cell Uptake Assay
Transport buffer: 134 mM NaCl, 5.4 mM KCl, 1.8 mM CaCl2, 0.8 mM MgSO4, 20 mM HEPES, 10 mM glucose, pH7.3, stored at room temperature
Assay buffer: Transport buffer+40 μM […] ^14C-ascorbic acid (Amersham Pharmacia Biotech)
Stock solution: 50 μCi in 50 μl Analar water, stored at −20° C.
Assay solution: 200 nCi ^14C-ascorbic acid in 200 μl assay buffer/well (125 μM)
Stop buffer: 200 μM phloretin in assay buffer, chilled to 4° C.
Lysis solution: 0.1% SDS in Analar water
MC3T3-E1 murine pre-osteoblast cells were seeded in a 24-well plate at 2×10^5 cells/well in 1 ml minimal essential media plus 10% FCS, penicillin and streptomycin. Cells were grown overnight at 37° C., 5% CO2. Assay buffer and solutions were prepared on the morning of the assay. Cells were examined under the microscope for confluence and viability. Growth media was removed using a Liquipippette and each well washed with 2×200 μl assay buffer. The appropriate assay solution was added to each well and the plate incubated at 37° C. for the required time. To stop the reaction, 0.5 ml chilled stop buffer was added to each well. Each well was then washed with 0.5 ml stop buffer. Cells were lysed in 0.1% SDS solution for approximately 10 min and solutions transferred to scintillation vials. Each well was then washed with assay buffer and this wash solution also transferred to the appropriate scintillation vial. Scintillation fluid (5 ml) was added to each vial, the vials vortexed and counted on a Rackbeta counter.

In series [3] the test system is mineralising nodules of primary rat osteoblasts. As to the kind of experiment: Autoradiography of mineralised bone nodules produced by cultured rat osteoblasts. Particulars: 21-day culture period. The format is cell-based. As for the experimental part: Foetus heads were collected and sprayed with 70% isopropanol. Calvaria were then removed by cutting the skin from the top of the head, making one incision through the calvaria from the external auditory meatus across behind the parietal bones and a second forward to above the eye sockets. When all the calvaria were isolated, they were rinsed with PBS (Ca^2+ and Mg^2+-free), then incubated in trypsin at 37° C. for 10 minutes. Calvaria were transferred into 0.2% collagenase (type II) in HBSS for 30 minutes at 37° C. This collagenase digestion was repeated for 60 minutes to release the osteoblast populations. Supernatant was removed and spun down to obtain a cell pellet. The pellet was resuspended in media, viable cells counted and plated out into a T75 flask. Once confluent, cells were subcultured into 6-multiwell plates at 2×10^4-2×10^5 cells/well in 3 ml medium containing 1 mM β-glycerophosphate. In addition ascorbic acid (50 μg/ml), ^14C-ascorbic acid (19.6 μCi/ml) or ^14C-compound 7 (2.8 μCi/ml) were incubated with osteoblasts over the culture period. Cells were fed two to three times per week and cultured for up to 21 days. Nodules became macroscopically visible at around 7-10 days and commenced mineralisation (assessed by Alizarin red staining) soon after. […]

As a reminder, the IC50 is the concentration needed to halve the response being measured. A lower IC50 goes with inhibition by little substance.

On to `O=C1O[C@H]([C@@H](O)C[18F])C(O)=C1O` [^18F-DFA, 6-deoxy-6-[^18F]fluoro-L-ascorbic acid], for which the bone uptake result in series [1] is recorded as “very low”.
Regarding `O=C(/C=C/I)OCC(O)C1OC(=O)C(O)=C1O` (stereo not drawn) [Compound 15], in series [2], the IC50 was 796 µM and the Competition entry was “Yes”.
Consider `O=C1O[C@H]([C@@H](O)CO)C(O)=C1O` [Ascorbic acid, ascorbic acid], for which, in series [2], the IC50 came to 258 µM and the Competition result was “Yes”.
In the case of `O=C1O[C@H]([C@@H](O)CO)C(O)=C1O` [^14C-ascorbic acid], the “association with / accumulation in mineralised bone nodules (autoradiography)” value in series [3] is recorded as “associated with the mineralising nodules”.
Turning to `O=C1OC(C(O)CSc2ccccc2)C(O)=C1O` (stereo not drawn) [Compound 16], in series [2], the “competition for uptake of ^14C-ascorbic acid into MC3T3-E1 cells (text)” value is given as “competed”, the IC50 was 1850 µM and the Competition result is on record as “Yes”. Moreover, the “competition for uptake of ^14C-ascorbic acid into MC3T3-E1 cells (text)” value in series [2] (listed as compound 16) was “very weak”.
With `O=C1O[C@H]([C@@H](O)COC(=O)c2ccc(I)cc2)C(O)=C1O` [Compound 12, 6-O-(4-iodobenzoyl)-L-ascorbic acid], in series [2], the IC50 was 384 µM and the Competition entry was “Yes”.

The values above are taken from patent US6749832B2, “Labelled ascorbic acid derivatives” (Amersham PLC, priority 1999, dated 2004).
